Results on two compounds are retold here after article PMC9571594, “Development of Semisynthetic Apoptosis-Inducing Agents Based on Natural Phenolic Acids Scaffold: Design, Synthesis and In-Vitro Biological Evaluation” (Molecules, 2022).

As usually defined, the viability is a read-out of living cells in per cent, often relative to untreated cells. High values mean less harm to the cells, low ones more harm to the cells. What is called IC50 is the concentration that inhibits the measured activity by half.

Where “and” joins values, the source holds several entries; their conditions need not be identical. Identical values can stand only once. Like-named read-outs stand apart in the source and are kept apart here.

Assay [1] relates to Caco-2 cancer cell line. The experiment in a line: MTT cell viability assay, Caco-2. It counts as cell-based. The conditions noted are these: for viability at 15.625 µg/mL / viability at 31.25 µg/mL / viability at 62.5 µg/mL / viability at 125 µg/mL / viability at 250 µg/mL / viability at 500 µg/mL / IC50: Homo sapiens, Caco-2. The procedure: MCF-7 cells (Human breast adenocarcinoma), HepG2 (human hepatocellular carcinoma), A549 (human lung adenocarcinoma), Caco-2 (colon carcinoma), PANC-1 (human pancreatic cancer), and Vero cells (derived from normal kidney cells) were supplied by (Holding Company for Biological Products and Vaccines VACSERA; Giza, Egypt). The cells were cultured in PRMI 1640 medium (Lonza, Switzerland) supplemented with 10% fetal bovine serum (Gibco), 1% penicillin and 1% streptomycin (Sigma Aldrich, Saint Louis, MO, USA) at 37 °C under an atmosphere of 5% CO2 and 95% air.
The effect of parent compounds and their derivatives were assessed by (3-(4,5-dimethylthiazol-2-yl)-2,5diphenyl-tetrazolium bromide) MTT assay. […] After a merged sheet of cells developed, the growth media was decanted from the 96-well microtiter and refilled with different concentrations of compounds (µg/mL), and the plate was incubated at 37 °C for 48 h to minimize exposure to the dissolving agent (Supporting Information).
MTT solution (BIO BASIC CANADA INC) was prepared [5 mg/mL in phosphate buffered saline (PBS)], added to each well and incubated for 4 h, then after removing the media, 200 μL of DMSO was added to each well to solubilize the formazan crystals and the optical density of the formazan product was measured at 560 nm using microplate reader (mindray, MR-96A). The results were calculated as the mean of the three independent experiments. […]
Determination of sample cytotoxicity on cells (MTT protocol) […]
well) and incubated at 37°C for 24 hours to develop a complete monolayer sheet.
2- Growth medium was decanted from 96 well micro titer plates after confluent sheet of cells were formed, cell monolayer was washed twice with wash media.
3- two-fold dilutions of tested sample was made in RPMI medium with 2% serum […]
4- 0.1 ml of each dilution was tested in different wells leaving 3 wells as control, receiving only maintenance medium.
5- Plate was incubated at 37°C and examined. Cells were checked for any physical signs of toxicity, e.g. partial or complete loss of the monolayer, rounding, shrinkage, […]
6- MTT solution was prepared (5mg/ml in PBS) (BIO BASIC CANADA INC).
8- 20ul MTT solution were added to each well. Place on a shaking table, 150rpm for 5 minutes, to thoroughly mix the MTT into the media.
10) Dump off the media. (dry plate on paper towels to remove residue if necessary. […] 9 ش - ايلعلا هبضهلا - مطقملا / ىسيئرلا لمعملا […]

The test system of assay [2] is Caco-2 cells. Description: Cell-cycle analysis by flow cytometry. The format is cell-based. Conditions: Caco-2 cells; for %G0–G1 / %G2/M / %S: cell-cycle distribution after treatment; for %Pre-G1: Pre-G1 = apoptotic population. As to the method: The potential candidates with anti-tumor effect on the Caco-2 cell line along with a high SI were chosen for cell-cycle analysis. The cell-cycle distribution and cell death were analyzed using Annexin V-FITC/PI staining and flow cytometry (Table 4, Figure 4).
In order to determine the percentage of viable, apoptotic and necrotic cells after treatment with our compounds, double-staining with fluorescein isothiocyanate (FITC) and PI was performed. Annexin V-FITC Apoptosis Detection Kit (BioVision, CA, USA) was used. Briefly, cultured Caco-2 were treated with the tested compounds or DMSO for 24h. Cells were then collected by centrifugation at 2000 rpm for 5 min, and the pellet was washed with PBS then centrifuged again at 2000 rpm for 5 min then resuspended in 500μL of the kit’s binding buffer before adding the Annexin V-FITC and PI. The cells were then incubated at room temperature in the dark for 5 min. […]
Assay : Cell Cycle Analysis
Kit used : ab139418_Propidium Iodide Flow Cytometry Kit/BD
Assay samples :Cell culture
Cpd. No. Cpd. No. Cpd. No. Cpd. No.
(In general: Flow cytometry measures light scatter and fluorescence of single cells or particles in a stream.)

[3] abbreviates: Caco2, MTT report T-4-019-5, Conc. ug/ml, read-out: IC50.
Setting [4] is: MTT, 48 h, average of triplicates, parent compounds and doxorubicin (Table 2), read-out: IC50 (μM) ± SD Caco-2.

In assay [1] (Caco2, 15.625 ug/ml), `O=C(O)/C=C/c1ccc(O)c(O)c1` [Compound 1, Caffeic acid] yielded a Toxicity % of 0.09606% and a viability at 15.625 µg/mL of 99.9%. In assay [1] (Caco2, 31.25 ug/ml), this compound displayed a Toxicity % of 10.47% and a viability at 31.25 µg/mL of 89.5%. In assay [1] (Caco2, 62.5 ug/ml), this compound had a Toxicity % of 52.83% and a viability at 62.5 µg/mL of 47.2%. In assay [1] (Caco2, 125 ug/ml), this compound registered a Toxicity % of 74.26% and a viability at 125 µg/mL of 25.7%. For the same compound, in assay [1] (Caco2, 250 ug/ml), the Toxicity % is given as 79.92% and the viability at 250 µg/mL was found to be 20.1%. In assay [1] (Caco2, 500 ug/ml), this compound yielded a Toxicity % of 88.09% and a viability at 500 µg/mL of 11.9%. Besides, in assay [1] (setting [3]), the IC50 came out at 81.2 µg/mL. Further, the IC50 in assay [1] (setting [4]) was found to be 410 µM. In addition, in assay [2], the “%G0–G1” value is listed as 46.29 ± 3.1%, the “%G2/M” value was determined as 20.49 ± 1.92%, the “%S” value turned out to be 33.22 ± 1.99% and the “%Pre-G1” value came out at 11.31 ± 0.81%. In addition, in assay [2] (listed as s1), the “%G0–G1” value came to 46.29%, the “%G2/M” value is 20.49% and the “%S” value is given as 33.22%. Besides, in assay [2] (listed as caffeic acid), the “%Pre-G1” value is given as 11.31%.

In the case of `COc1cc(/C=C/C(=O)O)ccc1O` [Compound 2, Ferulic acid], in assay [1] (Caco2, 15.625 ug/ml), the Toxicity % was 0.2882% and the viability at 15.625 µg/mL came to 99.7%. In assay [1] (Caco2, 31.25 ug/ml), the Toxicity % worked out at 9.414% and the viability at 31.25 µg/mL came out at 90.6%. Also, in assay [1] (Caco2, 62.5 ug/ml), the Toxicity % is 22.57% and the viability at 62.5 µg/mL turned out to be 77.4%. Moreover, in assay [1] (Caco2, 125 ug/ml), the Toxicity % is given as 70.61% and the viability at 125 µg/mL came out at 29.4%. For the same compound, in assay [1] (Caco2, 250 ug/ml), the Toxicity % is given as 88.18% and the viability at 250 µg/mL was determined as 11.8%. In assay [1] (Caco2, 500 ug/ml), the Toxicity % was found to be 84.34% and the viability at 500 µg/mL is 15.7%. For the same compound, the IC50 in assay [1] (setting [3]) was 96.4 µg/mL. Further, the IC50 in assay [1] (setting [4]) is 410 µM. Besides, in assay [2], the “%Pre-G1” value is 13.22% and 13.22 ± 0.63%.
